Experimental findings from ChEMBL document CHEMBL1148259, “2,4-Bis(octadecanoylamino)benzenesulfonic acid sodium salt as a novel scavenger receptor inhibitor with low molecular weight” (Bioorg Med Chem Lett, 2004) are described below.

Experiment [1] deals with T1, Macrophage scavenger receptor types I and II (Mus musculus) (UniProt P30204).
T1 sequence (whole entry): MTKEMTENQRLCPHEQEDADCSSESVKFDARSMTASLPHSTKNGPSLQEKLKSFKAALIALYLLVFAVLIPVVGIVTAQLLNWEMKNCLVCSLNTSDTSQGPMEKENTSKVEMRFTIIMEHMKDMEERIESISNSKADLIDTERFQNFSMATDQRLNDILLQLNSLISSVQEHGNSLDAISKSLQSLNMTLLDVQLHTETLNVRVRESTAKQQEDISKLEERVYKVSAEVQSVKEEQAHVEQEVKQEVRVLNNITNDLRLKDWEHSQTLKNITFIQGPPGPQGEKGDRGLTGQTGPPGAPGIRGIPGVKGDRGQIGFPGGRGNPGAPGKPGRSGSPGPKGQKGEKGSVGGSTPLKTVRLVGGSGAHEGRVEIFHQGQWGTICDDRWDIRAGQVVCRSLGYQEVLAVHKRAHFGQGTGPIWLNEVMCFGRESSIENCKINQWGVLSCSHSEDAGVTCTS
Put plainly: Percent inhibition of DiI-acetyl-LDL binding to scavenger receptor of mouse peritoneal macrophages at 100 uM. Format: functional.

The target in experiment [2] is T2, Macrophage scavenger receptor types I and II (Mus musculus, UniProt P30204).
T2 sequence (P30204 whole entry): T1 sequence (whole entry)
Put plainly: Inhibitory activity against [125I]acetyl-LDL binding to mouse peritoneal macrophage scavenger receptor.

The target of experiment [3] is T1, Macrophage scavenger receptor types I and II (Mus musculus). The experiment is described as follows: Activity against acetyl-LDLbinding to scavenger receptor as percent inhibition of incorporation of DiI-acetyl-LDL into mouse peritoneal macrophages at 30 uM.
Experiment [4] shares this target. The experiment is described as follows: Activity against acetyl-LDLbinding to scavenger receptor as percent inhibition of incorporation of DiI-acetyl-LDL into mouse peritoneal macrophages at 10 uM.
For experiment [5] the target is unchanged. Put plainly: Inhibitory activity against [125I]acetyl-LDL binding to mouse peritoneal macrophage scavenger receptor at 10 uM.
For experiment [6] the target is unchanged. The experiment is described as follows: Inhibitory activity against [125I]-acetyl-LDL binding to mouse peritoneal macrophage scavenger receptor at 100 uM.
The target is the same in experiment [7]. Put plainly: Inhibitory activity against [125I]acetyl-LDL binding to mouse peritoneal macrophage scavenger receptor at 30 uM.

Take `CCCCCCCCCCCCCCCCCC(=O)N1C[C@H](OS(=O)(=O)O)C[C@H]1C(=O)NCCCCCCCCCCCCCC`: the inhibition in experiment [1] was 23.7%.
Same read-out and setting: to `CCCCCCCCCCCCCCCCCC(=O)Nc1ccc(NC(=O)CCCCCCCCCCCCCCCCC)c(S(=O)(=O)O)c1` belongs 32.1%.
The same measure, in the same setting: with `CCCCCCCCCC(=O)Nc1ccc(S(=O)(=O)O)c(NC(=O)CCCCCCCCC)c1` the figure was < 10%.
Regarding `CCCCCCCCCCCCCCCCCC(=O)Nc1ccc(COS(=O)(=O)O)cc1NC(=O)CCCCCCCCCCCCCCCC`, the inhibition in experiment [1] is < 10%.
Consider `CCCCCCCCCCCCCCCCCC(=O)Nc1ccc(C(=O)O)c(NC(=O)CCCCCCCCCCCCCCCCC)c1`, for which the inhibition in experiment [1] is < 10%.
With `CCCCCCCCCCCCCCCCCC(=O)Nc1ccc(S(=O)(=O)O)c(NC(=O)CCCCCCCCCCCCCCCCC)c1`, the inhibition came out at 84.6% in experiment [1], 72.5% in experiment [3] and 57% in experiment [4]. This compound also showed an IC50 in experiment [2] of 2000 nM.
`CCCCCCCCCCCCCCCCCC(=O)Nc1ccc(S(=O)(=O)O)cc1`: the inhibition in experiment [1] was < 10%.
Regarding `CCCCCCCCCCCCCCCCCCCCCC(=O)Nc1ccc(S(=O)(=O)O)c(NC(=O)CCCCCCCCCCCCCCCCCCCCC)c1`, the inhibition is 85.7% in experiment [1] and 48% in experiment [3].
In the case of `CCCCCCCCCCCCCCCCCC(=O)Nc1cc(NC(=O)CCCCCCCCCCCCCCCCC)cc(S(=O)(=O)O)c1`, the figures for the inhibition in experiment [1], in experiment [3] and in experiment [4] were 71.2%, 46.2% and 18.5%, respectively.
Consider `CCCCCCCCCCCCCCCCCC(=O)NC(COS(=O)(=O)O)C(=O)NCCCCCCCCCCCCCC` (stereo not drawn), for which the inhibition in experiment [1] is 61.4%; in experiment [5] it was 6.6%; in experiment [3], 43.8%; in experiment [4], 20.5%; in experiment [6], 81.1%; in experiment [7] it was 41.8%.
As for `CCCCCCCCCCCCCC(=O)Nc1ccc(S(=O)(=O)O)c(NC(=O)CCCCCCCCCCCCC)c1`, the inhibition in experiment [1] was 66.6%; in experiment [3], 48%.

For orientation: inhibition means the share of the control response that was lost under treatment. One may read the IC50 as the midpoint of a concentration-inhibition curve. A higher IC50 goes with a need for much substance.
